Active and inactive are the calls of the source.
What was measured:
[1] = cells
[2] = HEp-2 cell cytotoxicity, dose response, cytotoxicity control for RSV inhibitor project, HTS (AID 2410); format: functional; conditions: human respiratory syncytial virus
[3] = P. falciparum Dd2 growth inhibitors, dose response, SYBR Green, cherry-picked samples (AID 1159567); format: functional, cell-based
[4] = test system: Streptococcus; test: Group A Streptococcus viability loss, dose response, counter-screen for streptokinase expression inhibitor project, luminescence, BacTiterGlo (AID 1915); format: functional, organism-based;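 further: potency for reduction of bacterial viability or growth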
[5] = test system: Streptococcus sp. 'group A'; test: growth inhibition of control SK(-) GAS strain, dose response, counter-screen for streptokinase expression inhibitor project, luminescence, kanamycin, BacTiterGlo, confirmation (AID 1900); format: functional, organism-based
[6] = molecular target: T1, Streptokinase A (Streptococcus pyogenes serotype M1, UniProt P10520); test: S. pyogenes streptokinase expression inhibitors, potency, dose response, plasminogen activation absorbance, OD405 (AID 1914); format: functional, Streptococcus pyogenes M1 GAS;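 further: secreted streptokinase activity via plasminogen activation per viability signal from cell pellet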
T1 sequence (P10520 whole entry): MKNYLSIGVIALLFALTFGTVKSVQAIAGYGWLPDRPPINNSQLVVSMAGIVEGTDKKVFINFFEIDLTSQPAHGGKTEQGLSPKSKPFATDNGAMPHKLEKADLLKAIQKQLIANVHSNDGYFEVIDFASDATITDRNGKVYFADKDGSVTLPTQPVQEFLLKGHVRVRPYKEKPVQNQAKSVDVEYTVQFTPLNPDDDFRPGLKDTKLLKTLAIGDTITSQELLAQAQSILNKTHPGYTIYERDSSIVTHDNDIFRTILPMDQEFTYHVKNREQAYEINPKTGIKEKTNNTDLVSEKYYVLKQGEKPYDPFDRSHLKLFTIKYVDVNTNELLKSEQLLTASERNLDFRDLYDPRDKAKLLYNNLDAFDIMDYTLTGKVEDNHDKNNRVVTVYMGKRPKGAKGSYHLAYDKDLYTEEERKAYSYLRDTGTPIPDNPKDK

[7] = molecular target: T2, Leucine aminopeptidase (Plasmodium falciparum 3D7, UniProt Q8IL11); test: P. falciparum M17LAP inhibitors, primary screen, biochemical, fluorogenic H-Leu-NHMec substrate, 1536-well (AID 1619); format: functional
T2 sequence (Q8IL11 whole entry): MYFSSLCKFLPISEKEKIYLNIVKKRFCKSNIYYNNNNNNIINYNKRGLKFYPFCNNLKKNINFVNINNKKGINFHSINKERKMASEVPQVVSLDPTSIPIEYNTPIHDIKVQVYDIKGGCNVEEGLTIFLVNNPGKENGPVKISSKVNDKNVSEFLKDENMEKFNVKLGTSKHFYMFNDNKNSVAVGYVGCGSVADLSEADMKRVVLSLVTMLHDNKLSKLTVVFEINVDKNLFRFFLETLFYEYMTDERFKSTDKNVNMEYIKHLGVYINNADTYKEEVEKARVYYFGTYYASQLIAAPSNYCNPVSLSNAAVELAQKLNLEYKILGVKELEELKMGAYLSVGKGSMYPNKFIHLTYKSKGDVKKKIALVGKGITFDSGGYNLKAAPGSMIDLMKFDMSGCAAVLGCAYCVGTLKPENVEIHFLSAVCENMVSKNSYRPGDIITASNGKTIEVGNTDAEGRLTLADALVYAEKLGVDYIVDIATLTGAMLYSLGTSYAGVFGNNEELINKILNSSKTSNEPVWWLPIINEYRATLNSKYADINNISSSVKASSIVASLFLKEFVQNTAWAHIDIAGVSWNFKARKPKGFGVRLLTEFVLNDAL

[8] = cytotoxicity in KRAS-transformed pancreatic duct cells, primary screen, cell-based, fluorescence, HTS (AID 431); format: functional; conditions: Homo sapiens;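 further: cell line used: HPDE-C7K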
[9] = cytotoxicity in HPDE-C7 cells, cell-based, fluorescence, HTS (AID 430); format: functional; conditions: Homo sapiens
[10] = Luminescence Cell-Based Dose Retest to Confirm Inhibitors of Cancer Stem Cells. [Related pubchem assays (depositor defined):AID2717, AID2721]; format: functional; conditions: Homo sapiens
[11] = molecular target: Cytochrome P450 2D6 (Homo sapiens, UniProt P10635);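 further: CYP2D6 member of a cytochrome P450 panel assay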
[12] = molecular target: Cytochrome P450 2C19 (Homo sapiens, UniProt P33261); test: Cytochrome panel assay with activity outcomes. Panel member name: p450-cyp2c19 Compounds with AC50 equal or less than 10 uM are considered active; format: functional; conditions: read-out: AC50
[13] = molecular target: T3, Ubiquitin-conjugating enzyme E2 N (Homo sapiens, UniProt P61088); format: functional;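 further: Dose-response confirmation in a TR-FRET assay detecting UBC13-driven polyubiquitin chain formation, inhibition measured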
T3 sequence (P61088 whole entry): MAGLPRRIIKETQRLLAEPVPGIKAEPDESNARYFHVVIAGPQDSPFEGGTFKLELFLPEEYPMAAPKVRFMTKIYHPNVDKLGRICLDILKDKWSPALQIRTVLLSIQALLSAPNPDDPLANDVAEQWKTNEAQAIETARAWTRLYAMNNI

[14] = HepG2 cell cytotoxicity, dose response, cytotoxicity control, plate reader, cherry-pick, antagonist series (AID 743416); format: functional, cell-based
[15] = A549 cell cytotoxicity, dose response, cytotoxicity control, plate reader, cherry-pick, antagonist series (AID 743412); format: functional, cell-based
[16] = microbe, parasite or virus in culture; format: functional; conditions: Mycobacterium tuberculosis
[17] = MC4R antagonists, dose response, counter-screen for LGR2 antagonist project, cell-based, plate reader, cherry pick (AID 743444); format: functional;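 further: transfected HEK 293 cells stimulated with alpha-MSH peptide; potency of inhibitors of the alpha-MSH evoked signal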
[18] = LGR2 antagonists, dose response, cell-based, HEK293, CRE-luciferase reporter, cherry pick, set 2 (AID 743343); format: functional;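 further: transfected cells were stimulated with diluted bursicon conditioned medium after compound addition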
[19] = HEK293 cell cytotoxicity, dose response, cytotoxicity control, plate reader, cherry-picked samples (AID 743446); format: functional, cell-based
[20] = molecular target: T4, Oxysterols receptor LXR-beta (Homo sapiens, UniProt P55055); test: LXR agonists, Gal4 luciferase reporter, dose response, counter-screen for ssDAF-12 agonist project, cell-based, luminescence, HEK293, S. stercoralis campaign (AID 720737); format: functional; conditions: read-out: IC50 (the source's name)
T4 sequence (P55055 whole entry): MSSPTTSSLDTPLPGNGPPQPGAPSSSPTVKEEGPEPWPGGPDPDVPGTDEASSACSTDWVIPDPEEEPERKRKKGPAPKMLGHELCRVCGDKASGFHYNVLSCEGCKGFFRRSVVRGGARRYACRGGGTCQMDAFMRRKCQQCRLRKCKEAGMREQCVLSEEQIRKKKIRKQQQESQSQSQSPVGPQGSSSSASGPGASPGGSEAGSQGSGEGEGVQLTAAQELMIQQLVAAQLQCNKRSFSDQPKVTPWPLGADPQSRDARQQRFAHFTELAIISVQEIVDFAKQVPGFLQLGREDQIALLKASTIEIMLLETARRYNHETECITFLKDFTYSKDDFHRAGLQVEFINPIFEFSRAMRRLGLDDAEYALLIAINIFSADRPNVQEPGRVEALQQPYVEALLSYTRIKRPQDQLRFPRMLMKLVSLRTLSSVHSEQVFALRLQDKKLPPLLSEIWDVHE

[21] = inhibitors of intracellular T. cruzi replication, confirmation, NIH3T3 host cells, beta-gal luminescence (AID 2044); format: functional, cell-based;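 further: intracellular parasites grown in NIH/3T3 mouse fibroblasts as host cells; luminescent beta-galactosidase reporter signal from transgenic T. cruzi replicating inside host cells; inhibitors lower the luminescence signal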
[22] = cytotoxicity toward NIH3T3 fibroblasts, dose response, counter-screen, cell-based, ATP luminescence, mouse fibroblasts (AID 2010); format: functional;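 further: cells exposed to compound for about 90 hours before reading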
[23] = Luminescence-based cell-based high throughput dose response assay to identify activators of the DAF-12 from the parasite S. stercoralis (ssDAF-12).; format: functional
[24] = test system: H4; test: Luminescence Cell-Based Dose Response HTS to Identify Activators of 5'UTR Stem-Loop Driven Prion Protein mRNA Translation in H4 Neuroglioblastoma Cells. [Related pubchem assays: 1829 (Project Summary), 1814 (Primary HTS)]; format: functional; conditions: Homo sapiens
[25] = Luminescence Cell-Based Dose Response HTS to Identify Activators of Luciferase Translation or Activity in H4 […] Cells. [Related pubchem assays: 1829 (Project Summary), 1814 (Primary HTS)]; format: functional

Sequence of Cytochrome P450 2D6 (P10635 whole entry): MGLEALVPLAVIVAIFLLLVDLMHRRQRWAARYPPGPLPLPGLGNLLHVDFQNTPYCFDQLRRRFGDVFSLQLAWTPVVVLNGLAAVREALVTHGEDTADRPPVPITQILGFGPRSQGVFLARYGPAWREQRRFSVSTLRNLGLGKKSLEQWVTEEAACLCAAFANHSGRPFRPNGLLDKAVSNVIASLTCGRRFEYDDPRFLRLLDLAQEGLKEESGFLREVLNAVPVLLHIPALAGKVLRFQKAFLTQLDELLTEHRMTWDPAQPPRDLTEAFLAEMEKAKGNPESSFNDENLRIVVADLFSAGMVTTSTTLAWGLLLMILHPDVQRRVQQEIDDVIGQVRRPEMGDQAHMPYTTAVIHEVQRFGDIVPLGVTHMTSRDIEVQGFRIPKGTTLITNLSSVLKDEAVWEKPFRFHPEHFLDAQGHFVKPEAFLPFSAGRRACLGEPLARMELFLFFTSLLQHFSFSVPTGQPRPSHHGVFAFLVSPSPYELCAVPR
Sequence of Cytochrome P450 2C19 (P33261 whole entry): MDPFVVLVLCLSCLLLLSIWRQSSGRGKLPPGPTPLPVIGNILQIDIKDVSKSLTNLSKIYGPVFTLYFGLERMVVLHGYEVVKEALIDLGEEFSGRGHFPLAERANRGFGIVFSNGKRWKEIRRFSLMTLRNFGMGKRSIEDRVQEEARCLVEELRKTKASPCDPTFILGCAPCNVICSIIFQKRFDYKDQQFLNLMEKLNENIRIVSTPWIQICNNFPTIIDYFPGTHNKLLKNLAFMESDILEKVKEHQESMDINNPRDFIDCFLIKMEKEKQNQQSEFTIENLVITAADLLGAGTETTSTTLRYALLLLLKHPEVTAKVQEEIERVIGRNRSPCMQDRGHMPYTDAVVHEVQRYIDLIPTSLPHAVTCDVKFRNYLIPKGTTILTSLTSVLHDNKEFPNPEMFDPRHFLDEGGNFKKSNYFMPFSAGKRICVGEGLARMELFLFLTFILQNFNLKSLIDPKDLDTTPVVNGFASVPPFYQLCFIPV

## CSc1ncccc1C(=O)Nc1nc(C(C)(C)C)cs1
[1]
  IC50: 4.75 µM (active)
[2]
  CC50: 49.6 µM (active)

## C[C@@H]1CN([C@@H](C)CO)C(=O)c2c(c3ccccc3n2C)-c2ccccc2CO[C@@H]1CN(C)C(=O)[C@H](C)c1ccccc1
[3]
  AC50: 3.29 µM (active)

## O=C(Cc1cccs1)NNC(=S)NC(=O)c1ccccc1
[4]
  EC50: 16.9 µM (active)
[5]
  EC50: 4.36 µM (active)
[6]
  EC50: > 150 µM (not active)
[7]
  IC50: 30 µM (active)

## CCS(=O)(=O)N1CCCCN2[C@H](CO)[C@@H](c3ccc(-c4cccc(C#N)c4)cc3)[C@@H]2C1
[3]
  AC50: 9.04 µM (active)

## COc1ccc(C(=O)N/C(=C/c2cccs2)c2nc3ccccc3[nH]2)cc1OC
[1]
  IC50: 22.6 µM (active)

## Cc1c(NC(=O)CN2C(=O)NC3(CCCCC3C)C2=O)cccc1[N+](=O)[O-] (stereo unspecified)
[1]
  IC50: 11.6 µM (active)

## N#CC1=C(SCC(=O)c2ccc(Cl)cc2)N=C2CCCC(O)=C2C1c1ccco1 (stereo unspecified)
[8]
  EC50: 7.7 µM (active)
[9]
  EC50: 7.64 µM (active)
[10]
  AC50: 2.64 µM (active)

## CCc1nnc(NS(=O)(=O)c2ccc(/N=C/c3c(C)nn(-c4ccc(C)cc4)c3O)cc2)s1
[11]
  AC50: 5.62 µM (inconclusive)
[12]
  AC50: 5.01 µM (inconclusive)
[7]
  IC50: 8.11 µM (active)

## Ic1ccccc1CN[C@@H]1C2CCN(CC2)[C@@H]1C(c1ccccc1)c1ccccc1
[13]
  IC50: > 20 µM (inactive)
[14]
  AC50: 8.05 µM (active)
[15]
  AC50: 7.99 µM (active)
[16]
  CC50: 12.6 µM (active)
[17]
  AC50: 21.6 µM (active)
[18]
  AC50: 18.1 µM (active)
[19]
  AC50: 13.9 µM (active)

## CN1c2ccsc2/C(=N/Nc2ccc(F)cc2)CS1(=O)=O
[20]
  EC50: > 67.5 µM (inactive)
[21]
  EC50: 3.22 µM (active)
[22]
  EC50: > 60 µM (not active)
[23]
  IC50: > 67.5 µM (inactive)
[24]
  EC50: 49.1 µM (active)
[25]
  EC50: 54.8 µM (active)

## COC(=O)c1ccccc1NC(=O)c1ccnn1C
[20]
  EC50: > 67.5 µM (inactive)
[23]
  IC50: > 67.5 µM (inactive)
